The source of these data is patent US12419891B2, “Compositions for the treatment of pathogenic- and/or chemical-induced lung injury and for the treatment of cancer and methods of using same” (Duke University, priority 2019, dated 2025).

In assay [1] the test system is mice exposed to S. aureus. As to the kind of experiment: mouse model of pneumonia induced by nasal insufflation of S. aureus. The format is in vivo. As for the experimental part:
Bacteria. S. aureus (Ssp. aureus, No. 25923; American Type Culture Collection) was grown as previously described (Suliman H B et al. (2017) Mitochondrial quality control in alveolar epithelial cells damaged by S. aureus pneumonia in mice. American journal of physiology. Lung cellular and molecular physiology 313(4):L699-L709). Dilutions of 5×10^8 CFU were used for mouse experiments, and dilutions of 1×10^8 CFU were used for cell culture experiments. S. pneumoniae (serotype 19, No. 49619; American Type Culture Collection) was grown as previously described (Gomez J C, et al. (2016) Journal of immunology 197(7):2864-2879). Dilutions of 6×10^5 CFU were used for mouse experiments.
CC10 (Scgb1a1)-CreERT; Rosa26R-CAG-farnesylated GFP (Rosa26-fGFP) and SPC (Sftpc)-CreERT2; Rosa26-tdTomato mice were kindly provided by Dr. Mark Onaitis and generated by Dr. Brigid Hogan at Duke University and have been previously described (Rawlins E L, et al. (2009) Cell stem cell 4(6):525-534, Xu X, et al. (2012) Proc Natl Acad Sci USA 109(13):4910-4915). These mice were crossed with Abl1^flox/flox mice (Moresco E M, et al. (2005) J Neurosci 25(26):6105-6118) into a C57BL/6 genetic background. Sox2^tmHoch/J mice (referred to as SOX2-eGFP mice in the text) were purchased from the Jackson Laboratory. Gt(Rosa) 26Sor^tm9(EGFP/Rpl10z)Amc/J (referred to as L10-eGFP in the text) mice were purchased from the Jackson Laboratory and were crossed to CC10-CreERT; Abl1^flox/flox mice into a C57BL/6 genetic background for the TRAP experiments. To induce expression of Cre-recombinase for both TRAP experiments and lineage tracing experiments, 8to 20-week-old male and female mice were injected intraperitoneally four times every other day with 0.25 mg/g body weight Tamoxifen (Sigma-T5648) in corn oil (Spectrum-CO136). Exposure to S. aureus was initiated 15 days after the last dose of Tamoxifen. Alternatively, mice were inoculated with purified Adenovirus5-CC10-Cre virus obtained from the University of Iowa Viral Vector Core Facility and generated by Dr. Anton Berns (Netherlands Cancer Institute). 10 μL of stock virus solution was mixed in 30 μL of Minimum Essential Medium and delivered intranasally twice, three days apart, three weeks prior to induction of S. aureus pneumonia. Mice were anesthetized using 0.3 mg xylazine and […] ketamine intraperitoneally prior to intranasal inoculation with a 50 μL dilution of 5×10^8 S. aureus. The mice were monitored daily for weight loss and signs of respiratory distress and euthanized in an isofluorane chamber at days 0, 1, 2, and 3 after inoculation. All experiments were performed under the Duke University IACUC approved protocols: A098-16-04 and A130-16-06. Male and female mice at different ages (8 to 20 weeks old) were evaluated for differential response to drug (Abl kinase inhibitors and tamoxifen) and/or injury, and no significant effects of age and gender were observed.
Inhibitors. GNF5 (N-(2-Hydroxyethyl)-3-(6-(4-(trifluoromethoxy)phenylamino)pyrimidin-4-yl)benzamide) was synthesized at the Duke University's Small Molecule Synthesis Facility, and validated by LC-MS and 1H-NMR/FT-IR spectra and with cell-based assays that confirm potencies and cell signaling inhibitory activities. For in vivo experiments, GNF5 was prepared in a suspension with 0.5% methylcellulose and 0.5% Tween-80 at a concentration of 10 mg/mL, and mice were treated with either 20 mg/kg, 40 mg/kg, or 100 mg/kg b.i.d. via oral gavage.
Bronchoalveolar lavage preparation and assays. Bronchoalveolar lavage (BAL) fluid was collected immediately after euthanasia three days after exposure to S. aureus as previously described (Suliman H B, et al. (2017) Lung cellular and molecular physiology 313(4):L699-L709). Bilateral BAL was performed using two 1 mL aliquots of sterile PBS with approximately 75-80% retrieval per mouse. […]

Assay [2] deals with primary human bronchial epithelial cells (HBECs). As to the kind of experiment: basal cell differentiation of primary HBECs in air-liquid interface (ALI) cultures. The format is cell-based. Particulars: vs vehicle. The source says: Cell Culture. Primary human bronchial epithelial cells were isolated as previously described (Fulcher M L & Randell S H (2013) Methods Mol Biol 945:109-121) and passage 1 cells were derived from human lungs unsuitable for transplantation from non-smoker organ donors without pre-existing lung disease under protocol #03-1396 approved by the University of North Carolina at Chapel Hill Biomedical Institutional Review Board. Informed consent was obtained from authorized representatives of all organ donors. 30,000 cells were plated into each well of 6.5 mm polyester inserts containing 0.4 μm pores (Sigma-CLS3470) coated with Type IV human placenta collagen (Sigma-C7521). 100 μl of ALI medium was added to the insert and 600 μl of ALI medium was added to the well at the time of plating. At Day 3, ALI medium from the insert was removed while that in the well was changed daily for 28 days. At Day 28, the inserts containing the cells were removed from their wells, washed with PBS, and incubated at 37° C. for 30 minutes with 1×10^8 CFU S. aureus. Cells were then washed three times with PBS and returned to wells containing 600 μl of ALI medium to regrow. Cells were harvested at multiple time points up to five days after injury for protein or RNA extraction. All cultures were maintained at 37° C. in humidified air containing 5% CO2.
First, the role of Abl kinases in basal cell differentiation in primary human bronchial epithelial cells (HBECs) in air-liquid interface (ALI) cultures was examined. Basal cells were isolated from human donor lungs and plated on polyester transwell inserts at passage 1. Once the cells were 100% confluent (3-4 days after plating), media from the top chamber of the transwell insert was removed to promote differentiation of the basal cells into a pseudostratified ciliated epithelium (FIG. 19A). […] Among these are acetylated α-tubulin and SNTN (ciliated cell marker) and SCGB3A2 (secretory cell marker) (FIG. 19C).
To identify whether Abl kinase inhibition promotes early (Krt5+ cells→Krt8+ cells) or late (Krt8+→acetylated α-tubulin or Scgb1a1+ cells) differentiation, a time course experiment in primary HBEC ALI cultures was conducted. Primary HBECs were plated on polyester transwell inserts and treated with vehicle control or GNF5 24 hours after plating.

Assay [3] relates to Kras G12D/+; p53 -/- driven lung tumors. The format is in vivo, mouse. To be noted: GNF5 b.i.d.; docetaxel at sub-therapeutic dose; vehicle four-fold increase.

Molecules are shown by their SMILES.

For `O=C(NCCO)c1cccc(-c2cc(Nc3ccc(OC(F)(F)F)cc3)ncn2)c1` [GNF5, N-(2-Hydroxyethyl)-3-(6-(4-(trifluoromethoxy)phenylamino)pyrimidin-4-yl)benzamide], in assay [1] (24 h after injury, vs vehicle control-treated mice), the “activity and appearance of mice” value was “active and exhibited a healthy appearance”. In addition, the “lung injury in lung tissue sections (H&E)” value in assay [1] (72 hours post-infection, treatment started 1 h after insufflation) is given as “significant decrease in lung injury”. The “proportion of GFP+ (Scgb1a1 driver) SPC+ cells” value in assay [1] (CC10-CreER, Rosa26-fGFP mice, three days after injury, vs vehicle) is “significant increase”. Besides, in assay [1] (SOX2-eGFP mice, 100 mg/kg b.i.d. oral gavage from 24 h before insufflation, three days after injury, vs vehicle), the “proportion of SOX2+ SPC+ cells expanding from bronchioles into lung parenchyma” value was “dramatic increase”. The “alveolar damage (loss of alveolar area/volume compared to uninfected mice)” value in assay [1] (SPC-CreERT2, Rosa26-tdTomato mice, 3 days after injury, vs Abl1 wt or fl/fl mice) was “reduced damage”. Moreover, the “tdTomato+, RAGE+ (Type I) cells derived from tdTomato+, SPC+, RAGE- (Type II) cells” value in assay [1] (SPC-CreERT2, Rosa26-tdTomato mice, three days after injury) is “detected at sites of damage only in mice treated with GNF5”. Further, the “proportion of tdTomato+ (Sftpc driver) RAGE+ Type I AECs” value in assay [1] (SPC-CreERT2, Rosa26-tdTomato mice, vs untreated wild-type and Abl1 knockout) is listed as “increase in the proportion”. Moreover, in assay [1] (after injury), the “SPC expression in SCGB1A1+ cells within the bronchioles” value was “enhanced SPC expression”. Besides, the BAL protein concentration entry is reported as “significant reduction in protein concentration” in assay [1] (day 3 post-infection, treatment started 24 hours after injury (Post)) and “significant reduction in protein concentration” in assay [1] (day 3 post-infection, treatment started 24 hours prior to injury (Pre)). Besides, in assay [1] (day 3 post-infection, vs control mice), the “recovery of alveolar epithelium (RAGE staining)” value is “recovered more rapidly”. For the same molecule, the “recovery of mice after injury” value in assay [1] (two doses, 1 hour and 16 hours after injury, evaluated after 24 hours, vs vehicle) was “sufficient to promote recovery after 24 hours”. In addition, in assay [2] (7 days after plating), the “SNTN expression (RT-PCR)” value was “increase in expression of SNTN”. The “Krt8 expression (immunofluorescence and Western blot)” value in assay [2] (treated 24 hours after plating) is reported as “significant increase in expression of Krt8”. For the same molecule, the “change in tumor size over a two-week period (μCT)” value in assay [3] was “two-fold increase in tumor size”.
